Patent US11919887B2, “Substituted tetrahydrofurans as modulators of sodium channels” (Vertex Pharmaceuticals Incorporated, priority 2019, dated 2024)
Like-named read-outs stand apart in the source and are kept apart here.

Target: human Nav 1.8 (Homo sapiens, UniProt Q9Y5Y9)
Assay: E-VIPR assay detecting and measuring Nav inhibition (HEK cells expressing truncated human Nav 1.8)
Type: cell-based
Summary of the method: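 HEK cells expressing truncated human Nav1.8, transduced with KIR2.1 BacMam, were loaded with CC2-DMPE/DiSBAC6(3) FRET dyes and tested under electrical stimulation (E-VIPR). Compounds were run as 11-point 3-fold dilutions, top 300 nM final, 0.625% DMSO, with or without 25% human serum.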

[1] = in the Presence of Human Serum in the E-VIPR Assay, read-out: IC50
[2] = in the Absence of Human Serum in the E-VIPR Assay, read-out: IC50

Chain of human Nav 1.8 (Q9Y5Y9 whole entry, looked up, the tested form may be a part): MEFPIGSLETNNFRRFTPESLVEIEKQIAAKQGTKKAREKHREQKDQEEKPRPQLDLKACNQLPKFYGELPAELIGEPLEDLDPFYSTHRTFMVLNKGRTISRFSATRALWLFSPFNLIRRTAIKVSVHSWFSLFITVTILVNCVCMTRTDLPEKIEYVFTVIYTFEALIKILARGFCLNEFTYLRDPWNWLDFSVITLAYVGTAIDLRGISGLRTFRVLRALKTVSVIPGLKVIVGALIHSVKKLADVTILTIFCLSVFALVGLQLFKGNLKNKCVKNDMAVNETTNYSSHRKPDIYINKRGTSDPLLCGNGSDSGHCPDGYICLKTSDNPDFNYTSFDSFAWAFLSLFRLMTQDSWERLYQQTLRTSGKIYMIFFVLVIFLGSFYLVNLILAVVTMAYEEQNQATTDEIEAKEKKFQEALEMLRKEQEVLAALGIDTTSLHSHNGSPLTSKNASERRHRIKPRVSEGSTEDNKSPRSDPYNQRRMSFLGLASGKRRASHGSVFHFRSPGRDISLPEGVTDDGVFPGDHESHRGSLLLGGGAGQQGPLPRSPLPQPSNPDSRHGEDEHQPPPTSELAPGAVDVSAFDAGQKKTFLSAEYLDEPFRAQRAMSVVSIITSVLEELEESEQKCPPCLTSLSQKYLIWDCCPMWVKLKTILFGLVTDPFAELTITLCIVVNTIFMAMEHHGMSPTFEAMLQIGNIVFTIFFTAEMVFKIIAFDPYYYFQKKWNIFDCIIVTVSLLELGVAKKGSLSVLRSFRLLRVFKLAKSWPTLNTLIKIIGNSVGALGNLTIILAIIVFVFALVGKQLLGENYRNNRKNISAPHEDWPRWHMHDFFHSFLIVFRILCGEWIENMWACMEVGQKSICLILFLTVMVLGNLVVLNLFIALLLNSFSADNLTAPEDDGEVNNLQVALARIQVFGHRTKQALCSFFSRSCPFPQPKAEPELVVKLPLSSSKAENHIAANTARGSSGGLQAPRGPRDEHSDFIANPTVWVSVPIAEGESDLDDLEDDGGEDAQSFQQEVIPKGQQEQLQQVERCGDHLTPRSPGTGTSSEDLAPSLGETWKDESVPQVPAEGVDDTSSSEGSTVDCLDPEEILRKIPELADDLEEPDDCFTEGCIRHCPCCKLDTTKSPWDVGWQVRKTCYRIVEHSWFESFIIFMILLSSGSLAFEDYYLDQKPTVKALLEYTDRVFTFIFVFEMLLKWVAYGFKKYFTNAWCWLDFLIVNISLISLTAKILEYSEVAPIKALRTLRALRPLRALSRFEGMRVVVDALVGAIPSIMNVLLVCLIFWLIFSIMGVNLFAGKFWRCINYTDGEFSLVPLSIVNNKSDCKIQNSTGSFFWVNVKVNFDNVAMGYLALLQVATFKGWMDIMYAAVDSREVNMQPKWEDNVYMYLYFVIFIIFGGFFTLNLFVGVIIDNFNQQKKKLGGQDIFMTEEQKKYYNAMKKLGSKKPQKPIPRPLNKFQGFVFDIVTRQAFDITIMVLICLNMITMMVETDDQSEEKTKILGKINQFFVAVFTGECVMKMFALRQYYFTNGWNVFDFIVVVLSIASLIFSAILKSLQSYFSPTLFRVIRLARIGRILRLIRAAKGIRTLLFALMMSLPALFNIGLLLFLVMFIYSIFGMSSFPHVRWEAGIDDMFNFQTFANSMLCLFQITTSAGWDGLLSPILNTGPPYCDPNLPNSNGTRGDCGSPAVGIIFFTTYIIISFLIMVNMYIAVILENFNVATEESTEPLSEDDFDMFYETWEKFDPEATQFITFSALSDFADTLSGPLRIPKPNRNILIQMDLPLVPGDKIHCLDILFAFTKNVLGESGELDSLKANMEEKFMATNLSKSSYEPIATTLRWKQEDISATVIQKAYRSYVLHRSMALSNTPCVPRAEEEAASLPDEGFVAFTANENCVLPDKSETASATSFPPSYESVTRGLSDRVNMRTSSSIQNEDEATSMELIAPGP

SMILES	IC50 [1] [µM]	IC50 [2] [µM]	further results
C[C@H]1[C@@H](c2ccc(F)c(F)c2OCC2CC(F)(F)C2)[C@H](C(=O)Nc2ccnc(C(N)=O)c2)O[C@@]1(C)C(F)(F)F [Compound 146, 4-[[(2R,3S,4S,5R)-3-[2-[(3,3-difluorocyclobutyl)methoxy]-3,4-difluoro-phenyl]-4,5-dimethyl-5-(trifluoromethyl)tetrahydrofuran-2-carbonyl]amino]pyridine-2-carboxamide]	0.01 to 0.1		
C[C@H]1[C@@H](c2ccc(F)c(F)c2OC2CCC2)[C@H](C(=O)Nc2ccnc(C(N)=O)c2)O[C@@]1(C)C(F)(F)F [Compound 147, 4-[[(2R,3S,4S,5R)-3-[2-(cyclobutoxy)-3,4-difluoro-phenyl]-4,5-dimethyl-5-(trifluoromethyl)tetrahydrofuran-2-carbonyl]amino]pyridine-2-carboxamide]		< 0.01	
[2H]c1cc([C@H]2[C@H](C(=O)Nc3ccnc(C(N)=O)c3)O[C@@](C)(C(F)(F)F)[C@H]2C)c(OC)c(F)c1F [Compound 148, 4-[[(2R,3S,4S,5R)-3-(5-deuterio-3,4-difluoro-2-methoxy-phenyl)-4,5-dimethyl-5-(trifluoromethyl)tetrahydrofuran-2-carbonyl]amino]pyridine-2-carboxamide]			IC50 (in the Absence of Human Serum in the E-VIPR Assay): < 0.01 µM
C=Cc1c([C@H]2[C@H](C(=O)Nc3ccnc(C(N)=O)c3)O[C@@](C)(C(F)(F)F)[C@H]2C)ccc(F)c1F [Compound 149, 4-[[(2R,3S,4S,5R)-3-(3,4-difluoro-2-vinyl-phenyl)-4,5-dimethyl-5-(trifluoromethyl)tetrahydrofuran-2-carbonyl]amino]pyridine-2-carboxamide]		< 0.01	
COc1c([C@H]2[C@H](C(=O)Nc3ccnc(C(N)=O)c3)O[C@@](C)(C(F)(F)F)[C@H]2C)cc(Cl)c(F)c1F [Compound 152, 4-[[(2R,3S,4S,5R)-3-(5-chloro-3,4-difluoro-2-methoxy-phenyl)-4,5-dimethyl-5-(trifluoromethyl)tetrahydrofuran-2-carbonyl]amino]pyridine-2-carboxamide]		< 0.01	
[2H]C([2H])([2H])Oc1c([C@H]2[C@H](C(=O)Nc3ccnc(C(N)=O)c3)O[C@@](C)(C(F)(F)F)[C@H]2C)ccc(F)c1F [compound 26]			IC50 (in the Presence of Human Serum in the E-VIPR Assay): < 0.01 µM
C[C@@]1(C(F)(F)F)C[C@H](c2ccc(F)cc2OC(F)F)[C@@H](C(=O)Nc2ccnc(C(N)=O)c2)O1 [compound 73]	> 1		
C[C@]1(C(F)(F)F)C[C@@H](c2ccc(F)cc2OC(F)F)[C@H](C(=O)Nc2ccnc(C(N)=O)c2)O1 [compound 74]	0.01 to 0.1		
